Experimental data published in PMC9611734, “Alkaloid Derivative (Z)-3β-Ethylamino-Pregn-17(20)-en Inhibits Triple-Negative Breast Cancer Metastasis and Angiogenesis by Targeting HSP90α” (Molecules, 2022).

Molecular target: T1, HSP90α (Homo sapiens, UniProt P07900)
T1 construct: gene HSP90AA1; Recombinant human HSP90 alpha protein (ab80369)
Experiment: SPR (Biacore T200, […] binding model); supported by CETSA for HSP90 in MDA-MB-231 cells

Structure (SMILES): C/C=C1/CC[C@H]2[C@@H]3CCC4C[C@@H](NCC)CC[C@]4(C)[C@H]3CC[C@]12C (stereo partly drawn) [compound 1, (Z)-3β-ethylamino-pregn-17(20)-en]
- Kd: 21 µM
